According to patent US10752616B2, “Bicycloheteroaryl-heteroaryl-benzoic acid compounds as retinoic acid receptor beta (RARβ) agonists” (King's College London, priority 2014, dated 2020):

Columns and labels:
Format in all cases: cell-based
RARβ = RARβ (Mus musculus (Mouse), UniProt P22605); assay: Transactivation assay for RARβ (gal4-RAR fusion, pFR-luc reporter, COS-7 cells), Table 2; conditions: COS-7 reporter, mean of three or more determinations, species not stated (method: mouse or human)
Description: (§1) Transcriptional transactivation assays were performed with gal4 fusion receptor constructs, created using each of the RAR ligand binding domains of either mouse or human, co-transfected with the pFR-luc (Stratagene) reporter construct in COS-7 cells.
(§2) Briefly, on day 1, 96 well plates were seeded with 8000 cells per well then left to recover overnight. On day 2, the cells were co-transfected with 100 ng of reporter plasmid and 10 ng of the appropriate receptor plasmid per well using lipofectamine (Invitrogen). On day 3, the lipofectamine containing media was replaced by a DMEM without phenol red, followed by the addition of test compound dissolved in 1 μL of DMSO to each well's 100 μL total volume. Finally, on day 4, the cells were lysed and their luciferase substrate was provided by the BrightGlo™ reagent (Promega), the plates were then read on the MicroBeta TriLux™ (Perkin Elmer).
(§3) Data for test compounds are quoted as EC50 values. Where replicate data has been generated, the data are quoted as the mean EC50 from the separate experiments.
(§4) EC50's values are reported as mean values of three or more determinations.

RARα = RARα (Mus musculus (Mouse), UniProt P11416); assay: Transactivation assay for RARα (gal4-RAR fusion, pFR-luc reporter, COS-7 cells), Table 2; conditions: for RARα/RARβ ratio: fold-selectivity for RARβ over RARα, >1 = selective for RARβ
Sequence of RARα (P11416 183-417): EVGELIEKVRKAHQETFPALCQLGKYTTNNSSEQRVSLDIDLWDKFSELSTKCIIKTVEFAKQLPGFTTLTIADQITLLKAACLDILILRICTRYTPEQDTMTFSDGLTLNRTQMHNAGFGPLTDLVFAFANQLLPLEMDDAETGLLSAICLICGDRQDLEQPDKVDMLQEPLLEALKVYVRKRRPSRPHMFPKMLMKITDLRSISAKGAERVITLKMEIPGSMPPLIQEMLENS
Description: as §1, §2, §3, §4

RARγ = RARγ (Mus musculus (Mouse), UniProt P18911); assay: Transactivation assay for RARγ (gal4-RAR fusion, pFR-luc reporter, COS-7 cells), Table 2; conditions: for RARγ/RARβ ratio: fold-selectivity for RARβ over RARγ, >1 = selective for RARβ
Sequence of RARγ (P18911 185-419): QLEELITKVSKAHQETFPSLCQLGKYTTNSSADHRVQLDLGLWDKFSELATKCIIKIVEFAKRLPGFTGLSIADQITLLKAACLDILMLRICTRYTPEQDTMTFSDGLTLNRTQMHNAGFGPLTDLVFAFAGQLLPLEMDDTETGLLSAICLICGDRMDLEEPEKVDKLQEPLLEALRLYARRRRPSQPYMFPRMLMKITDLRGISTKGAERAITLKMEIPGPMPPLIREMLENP
Description: as §1, §2, §3, §4

[1] = Table 2, COS-7 reporter, mean of three or more determinations, inactive = no agonist action at highest concentration tested

Sequence of RARβ (P22605 210-444): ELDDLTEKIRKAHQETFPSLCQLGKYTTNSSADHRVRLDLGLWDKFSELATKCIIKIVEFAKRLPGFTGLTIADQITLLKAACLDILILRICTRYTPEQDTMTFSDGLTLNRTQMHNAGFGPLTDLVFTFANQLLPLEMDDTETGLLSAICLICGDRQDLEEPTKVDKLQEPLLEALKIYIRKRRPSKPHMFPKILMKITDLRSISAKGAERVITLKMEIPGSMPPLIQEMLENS

SMILES | EC50 (RARβ) | EC50 (RARα; [1]) | RARα/RARβ ratio (RARα) | EC50 (RARγ; [1]) | RARγ/RARβ ratio (RARγ) | RARα EC50 (RARα; [1]) | RARγ EC50 (RARγ; [1])
Cc1ccc(C)c2oc(-c3nc(-c4ccc(C(=O)O)cc4Br)no3)cc12 [BHBA-003, 3-Bromo-4-(5-(4,7-dimethylbenzofuran-2-yl)-1,2,4-oxadiazol-3-yl)benzoic acid] | 16 nM | 160 nM | 10 | 36 nM | 2 |  | 
Cc1ccc(C)c2oc(-c3nc(-c4ccc(C(=O)O)cc4C(F)(F)F)no3)cc12 [BHBA-004, 4-(5-(4,7-Dimethylbenzofuran-2-yl)-1,2,4-oxadiazol-3-yl)-3-(trifluoromethyl)benzoic acid] | 10 nM |  |  |  |  | inactive | inactive
Cc1ccc(C)c2oc(-c3nc(-c4ccc(C(=O)O)cc4N)no3)cc12 [BHBA-005, 3-Amino-4-(5-(4,7-dimethylbenzofuran-2-yl)-1,2,4-oxadiazol-3-yl)benzoic acid] | 23 nM | 130 nM | 5 | 55 nM | 2 |  | 
Cc1cc(-c2noc(-c3cc4c(C)ccc(C)c4o3)n2)ccc1C(=O)O [BHBA-006, 2-Methyl-4-(5-(4,7-dimethylbenzofuran-2-yl)-1,2,4-oxadiazol-3-yl)benzoic acid] | 14 nM | 89 nM | 6 | 25 nM | 2 |  | 
O=C(O)c1ccc(-c2noc(-c3cc4c(Cl)ccc(Cl)c4o3)n2)cc1 [BHBA-011, 4-(5-(4,7-Dichlorobenzofuran-2-yl)-1,2,4-oxadiazol-3-yl)benzoic acid] | 4.3 nM | 26 nM |  | 14 nM |  |  | 
O=C(O)c1ccc(-c2noc(-c3cc4c(Cl)ccc(Cl)c4o3)n2)c(Cl)c1 [BHBA-012, 3-Chloro-4-(5-(4,7-dichlorobenzofuran-2-yl)-1,2,4-oxadiazol-3-yl)benzoic acid] | 17 nM | 67 nM | 4 | 17 nM | 1 |  | 
Cc1cc(-c2noc(-c3cc4c(Cl)ccc(Cl)c4o3)n2)ccc1C(=O)O [BHBA-013, 2-Methyl-4-(5-(4,7-dichlorobenzofuran-2-yl)-1,2,4-oxadiazol-3-yl)benzoic acid] | 16 nM | 140 nM |  | 110 nM |  |  | 
Cc1ccc(Cl)c2oc(-c3nc(-c4ccc(C(=O)O)cc4Cl)no3)cc12 [BHBA-017, 3-Chloro-4-(5-(7-chloro-4-methylbenzofuran-2-yl)-1,2,4-oxadiazol-3-yl)benzoic acid] | 7.4 nM | 56 nM | 8 | 18 nM | 2.4 |  | 
Cc1ccc(Cl)c2cc(-c3nc(-c4ccc(C(=O)O)cc4Cl)no3)oc12 [BHBA-018, 3-Chloro-4-(5-(4-chloro-7-methylbenzofuran-2-yl)-1,2,4-oxadiazol-3-yl)benzoic acid] | 41 nM | 150 nM |  | 140 nM |  |  | 
O=C(O)c1ccc(-c2noc(-c3cc4c(C(F)(F)F)ccc(F)c4o3)n2)c(Cl)c1 [BHBA-020, 3-Chloro-4-(5-(7-fluoro-4-(trifluoromethyl)benzofuran-2-yl)-1,2,4-oxadiazol-3-yl)benzoic acid] | 8 nM | 60 nM |  | 23 nM |  |  | 
Cc1ccc(C)c2sc(-c3nc(-c4ccc(C(=O)O)cc4Cl)no3)cc12 [BHBA-022, 3-Chloro-4-(5-(4,7-dimethylbenzo[b]thiophen-2-yl)-1,2,4-oxadiazol-3-yl)benzoic acid] | 16 nM | 77 nM | 5 | 18 nM | 1.1 |  | 
Cc1ccc(C)c2oc(-c3nc(-c4ccc(C(=O)O)cc4)no3)nc12 [BHBA-023, 4-(5-(4,7-Dimethylbenzo[d]oxazol-2-yl)-1,2,4-oxadiazol-3-yl)benzoic acid] |  |  |  | 83 nM |  |  | 
Cc1ccc(C)c2oc(-c3nc(-c4ccc(C(=O)O)cc4Cl)no3)nc12 [BHBA-024, 3-Chloro-4-(5-(4,7-dimethylbenzo[d]oxazol-2-yl)-1,2,4-oxadiazol-3-yl)benzoic acid] | 24 nM | 180 nM | 7.5 | 47 nM | 2 |  | 
Cc1cc(-c2noc(-c3nc4c(C)ccc(C)c4o3)n2)ccc1C(=O)O [BHBA-025, 4-(5-(4,7-Dimethylbenzo[d]oxazol-2-yl)-1,2,4-oxadiazol-3-yl)-2-methylbenzoic acid] | 41 nM | 150 nM |  | 140 nM |  |  | 

Now from value to compound:

EC50 (RARβ) | EC50 (RARα; [1]) | RARα/RARβ ratio (RARα) | EC50 (RARγ; [1]) | RARγ/RARβ ratio (RARγ) | RARα EC50 (RARα; [1]) | RARγ EC50 (RARγ; [1]) | SMILES
2.2 nM | 16 nM |  | 8.4 nM |  |  |  | Cc1ccc(C)c2oc(-c3nc(-c4ccc(C(=O)O)c(F)c4)no3)cc12 [BHBA-007, 2-Fluoro-4-(5-(4,7-dimethylbenzofuran-2-yl)-1,2,4-oxadiazol-3-yl)benzoic acid]
1.9 nM | 17 nM |  | 6.8 nM |  |  |  | Cc1ccc(C)c2c(C)c(-c3nc(-c4ccc(C(=O)O)cc4)no3)oc12 [BHBA-008, 4-(5-(3,4,7-Trimethylbenzofuran-2-yl)-1,2,4-oxadiazol-3-yl)benzoic acid]
4.2 nM | 32 nM | 7.6 | 11 nM | 2.6 |  |  | Cc1ccc(C)c2c(C)c(-c3nc(-c4ccc(C(=O)O)cc4Cl)no3)oc12 [BHBA-009, 3-Chloro-4-(5-(3,4,7-trimethylbenzofuran-2-yl)-1,2,4-oxadiazol-3-yl)benzoic acid]
2.9 nM | 25 nM | 8 | 0.53 nM | 0.18 |  |  | Cc1ccc(C(C)C)c2cc(-c3nc(-c4ccc(C(=O)O)cc4)no3)oc12 [BHBA-010, 4-(5-(4-Isopropyl-7-methylbenzofuran-2-yl)-1,2,4-oxadazol-3-yl)benzoic acid]
2 nM | 12 nM |  | 11 nM |  |  |  | O=C(O)c1ccc(-c2noc(-c3cc4c(Cl)ccc(Cl)c4o3)n2)cc1F [BHBA-014, 2-Fluoro-4-(5-(4,7-dichlorobenzofuran-2-yl)-1,2,4-oxadiazol-3-yl)benzoic acid]
2.9 nM | 23 nM |  | 12 nM |  |  |  | Cc1ccc(Cl)c2oc(-c3nc(-c4ccc(C(=O)O)cc4)no3)cc12 [BHBA-015, 4-(5-(7-Chloro-4-methylbenzofuran-2-yl)-1,2,4-oxadiazol-3-yl)benzoic acid]
2.7 nM | 18 nM | 7 | 6 nM | 2 |  |  | Cc1ccc(Cl)c2cc(-c3nc(-c4ccc(C(=O)O)cc4)no3)oc12 [BHBA-016, 4-(5-(4-Chloro-7-methylbenzofuran-2-yl)-1,2,4-oxadiazol-3-yl)benzoic acid]
2.5 nM | 19 nM | 7.6 | 5.3 nM | 2 |  |  | O=C(O)c1ccc(-c2noc(-c3cc4c(C(F)(F)F)ccc(F)c4o3)n2)cc1 [BHBA-019, 4-(5-(7-Fluoro-4-(trifluoromethyl)benzofuran-2-yl)-1,2,4-oxadiazol-3-yl)benzoic acid]
3.4 nM | 30 nM | 9 | 6.3 nM | 2 |  |  | Cc1ccc(C)c2sc(-c3nc(-c4ccc(C(=O)O)cc4)no3)cc12 [BHBA-021, 4-(5-(4,7-Dimethylbenzo[b]thiophen-2-yl)-1,2,4-oxadiazol-3-yl)benzoic acid]
